Columns and labels:
Assay in all cases: relative viability (nuclei count vs DMSO), 5 days (fraction); higher = more cells survive
Sulindac + Phenformin = compound: CC1=C(CC(=O)O)c2cc(F)ccc2/C1=C\c1ccc([S+](C)[O-])cc1 [Sulindac] + N=C(N)NC(=N)NCCc1ccccc1 [Phenformin] (partner 250 µM)
Summary of the method: (§1)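 Lung cancer cell lines were pin-tool dosed in 1536-well plates on the day after seeding, with either a lone drug or a fixed anchor-drug dose plus five library-drug doses (not always all listed) in √10 steps. Nuclei were counted on 4× images after 5 days. Relative viability is the ratio of treated-well to vehicle-well nuclei counts, with each value a median of duplicate plates.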

[1] = compound: CN[C@@H]1C[C@H]2O[C@@](C)([C@@H]1OC)n1c3ccccc3c3c4c(c5c6ccccc6n2c5c31)C(=O)NC4 [Staurosporine] + CS(=O)(=O)CCNCc1ccc(-c2ccc3ncnc(Nc4ccc(OCc5cccc(F)c5)c(Cl)c4)c3c2)o1 [Lapatinib] (partner 2 µM)
Summary of the method: as §1

[2] = compound: O=c1[nH]cc(F)c(=O)[nH]1 [5-Fluorouracil] + N=C(N)NC(=N)NCCc1ccccc1 [Phenformin] (partner 250 µM)
Summary of the method: as §1

[3] = compound: O=c1[nH]cc(F)c(=O)[nH]1 [5-Fluorouracil] + O=C(c1cc(Cc2n[nH]c(=O)c3ccccc23)ccc1F)N1CCN(C(=O)C2CC2)CC1 [Olaparib] (partner 8 µM)
Summary of the method: as §1

Row | Cell Line | relative viability (Sulindac + Phenformin; first compound 0.08 µM) | relative viability (Sulindac + Phenformin; first compound 0.253 µM) | relative viability (Sulindac + Phenformin; first compound 0.8 µM) | relative viability (Sulindac + Phenformin; first compound 2.53 µM) | relative viability (Sulindac + Phenformin; first compound 8 µM) | relative viability ([1]; first compound 0.005 µM) | relative viability ([1]; first compound 0.01581 µM) | relative viability ([1]; first compound 0.05 µM) | relative viability ([1]; first compound 0.1581 µM) | relative viability ([1]; first compound 0.5 µM) | relative viability ([2]; first compound 0.02 µM) | relative viability ([2]; first compound 0.2 µM) | relative viability ([2]; first compound 0.6325 µM) | relative viability ([2]; first compound 2 µM) | relative viability ([3]; first compound 0.02 µM) | relative viability ([3]; first compound 0.2 µM) | relative viability ([3]; first compound 0.6325 µM) | relative viability ([3]; first compound 2 µM)
1 | NCI-H1666 | 0.564 | 0.629 | 0.561 | 0.529 | 0.631 | 0.573 | 0.45 | 0.425 | 0.267 | 0.208 | 0.582 | 0.447 | 0.392 | 0.392 | 0.861 | 0.67 | 0.647 | 0.625
2 | NCI-H1734 | 0.402 | 0.337 | – | 0.396 | 0.496 | 0.958 | 0.322 | 0.31 | 0.121 | 0.136 | 0.374 | 0.436 | 0.379 | 0.313 | 0.586 | 0.667 | 0.53 | 0.393
3 | NCI-H1755 | 0.645 | 0.653 | 0.525 | 0.643 | 0.648 | 0.556 | 0.33 | 0.207 | 0.142 | 0.142 | 0.667 | 0.598 | 0.364 | 0.256 | 0.817 | 0.665 | 0.374 | 0.319
4 | NCI-H1792 | 0.243 | 0.441 | – | 0.353 | 0.255 | 0.992 | 0.814 | 0.503 | 0.199 | 0.185 | 0.199 | 0.365 | 0.177 | 0.122 | 0.467 | 0.54 | 0.169 | 0.175
5 | NCI-H1793 | 0.404 | 0.396 | 0.272 | 0.372 | 0.333 | 0.829 | 0.281 | 0.527 | 0.216 | 0.18 | 0.467 | 0.476 | 0.42 | 0.266 | 0.787 | 0.9 | 0.613 | 0.483
6 | NCI-H1915 | 0.445 | 0.389 | – | 0.378 | 0.382 | 1.05 | – | 0.584 | 0.272 | 0.192 | – | 0.34 | 0.355 | 0.361 | 0.197 | 0.269 | 0.22 | 0.211
7 | NCI-H1944 | 0.209 | 0.226 | 0.18 | 0.203 | 0.271 | 0.849 | – | 0.566 | 0.435 | 0.304 | 0.195 | 0.208 | 0.157 | 0.135 | 0.389 | 0.379 | 0.298 | 0.187
8 | NCI-H1975 | 0.27 | 0.404 | 0.365 | 0.403 | 0.457 | 0.572 | 0.232 | 0.227 | 0.13 | 0.0954 | 0.385 | 0.357 | 0.266 | 0.194 | 0.805 | 0.736 | 0.356 | 0.21
9 | NCI-H1993 | 0.431 | 0.479 | 0.51 | 0.461 | 0.531 | 0.775 | 0.536 | 0.639 | 0.485 | 0.409 | 0.538 | 0.514 | 0.494 | 0.459 | 1.15 | 0.743 | 0.525 | 0.445
10 | NCI-H2009 | 0.549 | 0.521 | 0.45 | 0.53 | 0.538 | 0.249 | 0.152 | 0.251 | 0.125 | 0.0882 | 0.551 | 0.548 | 0.438 | 0.401 | 0.794 | 0.668 | 0.655 | 0.466
11 | NCI-H2023 | 0.423 | 0.498 | 0.325 | 0.419 | 0.571 | 0.509 | 0.11 | 0.18 | 0.0948 | 0.0518 | 0.448 | 0.181 | 0.102 | 0.0896 | 0.517 | 0.196 | 0.111 | 0.0832
12 | NCI-H2085 | 0.767 | 0.912 | 0.593 | 0.739 | 0.751 | 0.65 | 0.391 | 0.463 | 0.351 | 0.243 | 0.577 | 0.844 | 0.761 | 0.68 | 0.743 | 0.784 | 0.693 | 0.677
13 | NCI-H2087 | 0.58 | 0.529 | – | 0.431 | 0.51 | 0.755 | 0.548 | 0.427 | 0.206 | 0.105 | 0.49 | 0.555 | 0.438 | 0.333 | 0.577 | 0.607 | 0.45 | 0.319
14 | NCI-H2126 | 0.513 | 0.541 | 0.539 | 0.46 | 0.593 | 0.805 | 0.571 | 0.505 | 0.336 | 0.356 | 0.411 | 0.331 | 0.314 | 0.287 | 0.808 | 0.374 | 0.329 | 0.254
15 | NCI-H2170 | 0.471 | 0.407 | 0.411 | 0.384 | 0.432 | 0.289 | 0.236 | 0.258 | 0.197 | 0.193 | 0.393 | 0.42 | 0.341 | 0.293 | 0.597 | 0.545 | 0.339 | 0.289
16 | NCI-H2228 | 0.388 | 0.352 | 0.254 | 0.271 | 0.341 | 0.88 | 0.49 | 0.346 | 0.137 | 0.115 | 0.408 | 0.249 | 0.259 | 0.249 | 0.998 | 0.671 | 0.44 | 0.33
17 | NCI-H2347 | 0.379 | 0.33 | – | 0.375 | 0.381 | 0.457 | 0.348 | 0.352 | 0.319 | 0.407 | 0.296 | 0.489 | 0.24 | 0.328 | 0.62 | 0.489 | 0.456 | 0.445
18 | NCI-H2405 | 0.395 | 0.455 | 0.505 | 0.389 | 0.465 | 0.395 | 0.148 | 0.113 | 0.0819 | 0.0797 | 0.394 | 0.409 | 0.34 | 0.369 | 0.808 | 0.962 | 0.891 | 0.618
19 | NCI-H3122 | 0.384 | 0.37 | 0.626 | 0.325 | 0.413 | 1.01 | 0.318 | 0.988 | 0.665 | 0.685 | 0.366 | 0.349 | 0.21 | 0.174 | 0.51 | 0.542 | 0.299 | 0.216
20 | PC-3 [JPC-3] | 0.475 | 0.494 | 0.657 | 0.458 | 0.548 | 0.46 | – | 0.429 | 0.287 | 0.307 | 0.48 | 0.476 | 0.496 | 0.45 | 1.17 | 1.14 | 1.09 | 0.912
21 | PC-14 | 0.571 | 0.403 | 0.403 | 0.537 | 0.853 | 0.293 | 0.247 | 0.0956 | 0.0886 | 0.0786 | 0.572 | 0.682 | 0.558 | 0.585 | 0.277 | 0.265 | 0.304 | 0.179
22 | RERF-LC-KJ | 0.43 | 0.418 | 0.414 | 0.455 | 0.45 | 0.878 | 0.821 | 0.734 | 0.424 | 0.245 | 0.465 | 0.452 | 0.466 | 0.386 | 0.985 | 0.829 | 0.878 | 0.763
23 | SK-LU-1 | 0.498 | 0.567 | 0.444 | 0.444 | 0.668 | 0.611 | 0.266 | 0.153 | 0.162 | 0.16 | 0.529 | 0.651 | 0.501 | 0.485 | 0.511 | 0.551 | 0.557 | 0.407
24 | SK-MES-1 | 0.798 | 0.77 | 0.591 | 0.662 | 0.73 | 0.444 | 0.31 | 0.311 | 0.205 | 0.185 | 0.748 | 0.4 | 0.331 | 0.242 | 0.656 | 0.32 | 0.296 | 0.264
25 | SW 1573 | 0.458 | 0.365 | – | 0.388 | 0.509 | 1.01 | 1.07 | 0.417 | 0.355 | 0.186 | 0.475 | 0.42 | 0.385 | 0.246 | 0.477 | 0.625 | 0.416 | 0.262

— the supplement of paper PMC10307832
